This assay deals with T1, dopamine receptor (Bos taurus, UniProt P20288).
T1 construct: from tissue
As to the kind of experiment: 3H-haloperidol receptor binding assay (HRBA). The conditions noted are these: for inhibition at 0.01 µM / inhibition at 0.1 µM: read-out: inhibition of 3H-haloperidol binding. The source says: The compounds of this invention are useful because of their valuable pharmacological properties. […] As with other known neuroleptics, the compounds of this invention readily displace ^3 H-haloperidol from dopamine receptor binding sights in the ^3 H-haloperidol receptor binding assay (HRBA). […] The HRBA screen is described by I. Creese, D. R. Burt and S. H. Snyder, Science 142: 480 (1976) and by B. Seeman, T. Lee, M. Chani-Wong and K. Wong, Nature 261: 717 […].

The source of these data is US4292321A, “1,3,8-Triazaspirodecane-4-ones, pharmaceutical compositions thereof and method of use thereof” (Warner-Lambert Company, priority 1980, dated 1981).

Where a name gives a salt, the structure may show the parent alone. Read-outs that look alike come from different tables or passages of the source.

T1 sequence (P20288 whole entry): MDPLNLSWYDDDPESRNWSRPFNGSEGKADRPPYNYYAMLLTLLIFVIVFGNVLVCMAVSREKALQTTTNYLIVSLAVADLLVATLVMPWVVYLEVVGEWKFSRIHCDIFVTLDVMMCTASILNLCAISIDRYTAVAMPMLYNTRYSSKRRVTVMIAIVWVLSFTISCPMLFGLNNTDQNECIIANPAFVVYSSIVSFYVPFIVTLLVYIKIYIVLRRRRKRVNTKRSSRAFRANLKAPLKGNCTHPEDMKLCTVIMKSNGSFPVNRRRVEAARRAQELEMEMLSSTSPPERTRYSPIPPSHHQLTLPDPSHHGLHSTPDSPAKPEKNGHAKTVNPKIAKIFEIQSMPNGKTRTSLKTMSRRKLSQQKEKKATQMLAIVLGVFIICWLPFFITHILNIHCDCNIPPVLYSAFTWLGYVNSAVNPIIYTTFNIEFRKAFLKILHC

For orientation: inhibition means the percentage by which the read-out fell short of the control. In the case of `COc1ccccc1N1CCN(CCCN(c2ccc(F)cc2)c2ccc(F)cc2)CC1` [Example 35, N,N-bis(4-fluorophenyl)-4-(2-methoxyphenyl)-1-piperazinepropanamine dihydrochloride], the inhibition at 0.01 µM was roughly 28% and the inhibition at 0.1 µM is roughly 79%.

Turning to `OCCN1CCN(CCCN(c2ccc(F)cc2)c2ccc(F)cc2)CC1` [Example 36, 4-[3-[Bis(4-fluorophenyl)amino]propyl]-1-piperazineethanol dihydrochloride], the inhibition at 0.01 µM was roughly 21% and the inhibition at 0.1 µM was roughly 62%.

On to `Cl.Cl.Fc1ccc(N(CCCN2CCN(c3ccccc3)CC2)c2ccc(F)cc2)cc1` [Example 37, N,N-bis(4-fluorophenyl)-4-phenyl-1-piperazinepropanamine dihydrochloride], for which the inhibition at 0.1 µM was roughly 37%. Further, for the setting “10 n moles concentration”, the “inhibition of 3H-haloperidol binding” value is listed as “no inhibition”.

In the case of `Fc1cccc(C2=CCN(CCCN(c3ccccc3)c3ccccc3)CC2)c1.O=C(O)C(=O)O` [Example 40, 4-(3-Fluorophenyl)-1,2,3,6-tetrahydro-N,N-diphenyl-1-pyridinepropanamine ethanedioate], the inhibition at 0.1 µM is roughly 23%. Moreover, the “inhibition of 3H-haloperidol binding” value (10 n moles concentration) was “no inhibition”.

`Cc1cccc(C2CCN(CCCN(c3ccccc3)c3ccccc3)CC2)c1` [Example 41, N,N-diphenyl-4-[3-methylphenyl]-1-piperidinepropanamine butenedioate]: the inhibition at 0.01 µM (10 n moles concentration) is roughly 25%. The inhibition at 0.1 µM (100 n moles concentration) is roughly 84%.

With `Fc1ccc(NC2CCN(CCCN(c3ccccc3)c3ccccc3)CC2)cc1` [Example 42, 4-[(4-Fluorophenyl)amino]-N,N-diphenyl-1-piperidinepropanamine ethanedioate], the inhibition at 0.01 µM is roughly 26% and the inhibition at 0.1 µM is roughly 90%.

For the compound `OC(c1ccccc1)C1CCN(CCCN(c2ccccc2)c2ccccc2)CC1` (stereo not drawn) [Example 43, 1-[3-(Diphenylamino)propyl]-alpha-phenyl-4-piperidine methanol.], the “inhibition of 3H-haloperidol binding” value (10 n moles concentration) is “no inhibition”. Moreover, the inhibition at 0.1 µM (100 n moles concentration) is roughly 18%.

In the case of `O=C(c1ccc(Cl)cc1)C1CCN(CCCN(c2ccc(F)cc2)c2ccc(F)cc2)CC1` [Example 44, [1-[3-[Bis(4-fluorophenyl)amino]propyl]-4-piperidinyl]-(4-chlorophenyl)methanone ethanedioate], the inhibition at 0.01 µM is roughly 8% and the inhibition at 0.1 µM was roughly 69%.

For the compound `c1ccc(N(CCCN2CCC3(CC2)OCCO3)c2ccccc2)cc1` [Example 45, N,N-diphenyl-1,4-dioxo-8-azaspiro[4,5]decane-8-propanamine ethanedioate.], the inhibition at 0.01 µM (10 n moles concentration) was roughly 10%. Also, for the setting “100 n moles concentration”, the inhibition at 0.1 µM was roughly 26%.

Consider `c1ccc(N(CCCNC2=NC3CCC2CC3)c2ccccc2)cc1` [Example 46, N'-2-azabicyclo[2,2,2]-oct-2-en-3-yl-N,N-diphenyl-1,3-propanediamine], for which the inhibition at 0.01 µM (10 n moles concentration) was roughly 3%. The inhibition at 0.1 µM (100 n moles concentration) was roughly 12%.
